Data on 13 compounds can be found in patent US20140303164A1, “THERAPEUTIC COMPOUNDS” (Gilead Sciences, Inc., priority 2013, published 2014).

Broadly, the inhibition is the drop in the measured response relative to a control, in per cent. The term CC50 denotes the concentration at which the toxic effect on the cells reaches its halfway point.

In one data set the test system is HIV-IIIb. The data set is described as follows: Test A: Antiviral Assay in MT4 Cells. Format: cell-based, HIV-1. The conditions noted are these: for inhibition at 0.2 µM / inhibition at 2 µM: Human immunodeficiency virus 1, IIIB, MT4, 120 h; for inhibition at 0.2 µM: read-out: % inhibition at 0.2 μM; for inhibition at 2 µM: read-out: % inhibition at 2 μM. The procedure:
Test A: Antiviral Assay in MT4 Cells
MT-4 cells were next mixed with HIV-IIIb at an m.o.i of 0.003 for 1 hour, after which time 35 μL of virus/cell mixture (2000 cells) was immediately added to each well containing 40 μL of diluted compound. The plates were then incubated at 37° C. for 5 days. […] Cell lysis was carried out by incubating at room temperature for 10 min and then chemiluminescence was read.

Data set [1] in a line: Test B: Cytotoxicity Assay. Format: cell-based. The settings on record: human, uninfected MT-4 cells, same protocol as Test A. The method, boiled down:
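Uninfected MT-4 cells (2000 per well) incubated with diluted compound at 37° C. for 5 days, following the antiviral protocol without HIV-IIIb.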

With `CC(C)(C)C#Cc1ccc(-c2ccc(Cl)n3c(N)nnc23)c([C@H](Cc2cc(F)cc(F)c2)NC(=O)Cn2nc(C(F)F)c3c2C(F)(F)[C@@H]2C[C@H]32)n1` [Compound 115C, N—((S)-1-(3-(3-amino-5-chloro-[1,2,4]triazolo[4,3-a]pyridin-8-yl)-6-(3,3-dimethylbut-1-yn-1-yl)pyridin-2-yl)-2-(3,5-difluorophenyl)ethyl)-2-((3b-S,4aR)-3-(difluoromethyl)-5,5-difluoro-3b,4,4a,5-tetrahydro-1H-cyclopropa[3,4]cyclopenta[1,2-c]pyrazol-1-yl)acetamide], in the data set on HIV-IIIb, the inhibition at 0.2 µM stood at 84% and the inhibition at 2 µM stood at 91%. The compound further returned a CC50 at 5 days in data set [1] of 9.31 µM.
For the compound `Cn1nc(N)c2cccc(-c3cnc(C#CC(C)(C)O)nc3[C@H](Cc3cc(F)cc(F)c3)NC(=O)Cn3nc(C(F)F)c4c3C(F)(F)CCC4(F)F)c21` [Compound 37F, (S)—N-(1-(5-(3-amino-1-methyl-1H-indazol-7-yl)-2-(3-hydroxy-3-methylbut-1-yn-1-yl)pyrimidin-4-yl)-2-(3,5-difluorophenyl)ethyl)-2-(3-(difluoromethyl)-4,4,7,7-tetrafluoro-4,5,6,7-tetrahydro-1H-indazol-1-yl)acetamide], in the data set on HIV-IIIb, the inhibition at 0.2 µM turned out to be 90% and the inhibition at 2 µM is 90%. The compound also returned a CC50 at 5 days in data set [1] of 6.35 µM.
In the case of `Cn1nc(NS(C)(=O)=O)c2cccc(-c3ccc(C#CC(C)(C)O)nc3[C@H](Cc3cc(F)cc(F)c3)NC(=O)Cn3nc(C(F)F)c4c3C(F)(F)[C@@H]3C[C@H]43)c21` [Compound 20, (S)—N-(1-(3-(1-methyl-3-(methylsulfonamido)-1H-indazol-7-yl)-6-(3-hydroxy-3-methylbut-1-ynyl)pyridin-2-yl)-2-(3,5-difluorophenyl)ethyl)-2-((3b-S,4aR)-5,5-difluoro-3-(difluoromethyl)-3b,4,4a,5-tetrahydro-1H-cyclopropa[3,4]cyclopenta[1,2-c]pyrazol-1-yl)acetamide], in the data set on HIV-IIIb, the inhibition at 0.2 µM was 96% and the inhibition at 2 µM was determined as 80%. The CC50 at 5 days in data set [1] is 11.2 µM.
For the compound `CC(C)C(O)C#Cc1ccc(-c2cccc3c(NS(C)(=O)=O)nn(C)c23)c([C@H](Cc2cc(F)cc(F)c2)NC(=O)Cn2nc(C(F)(F)F)c3c2C(F)(F)[C@@H]2C[C@H]32)n1` (stereo partly drawn) [Compound 64, 2-((3bS,4aR)-5,5-difluoro-3-(trifluoromethyl)-3b,4,4a,5-tetrahydro-1H-cyclopropa[3,4]cyclopenta[1,2-c]pyrazol-1-yl)-N-((1S)-2-(3,5-difluorophenyl)-1-(6-(3-hydroxy-4-methylpent-1-yn-1-yl)-3-(1-methyl-3-(methylsulfonamido)-1H-indazol-7-yl)pyridin-2-yl)ethyl)acetamide], in the data set with HIV-IIIb, the inhibition at 0.2 µM came to 98% and the inhibition at 2 µM is 98%. The CC50 at 5 days in data set [1] was 7.7 µM.
Consider `Cn1nc(O)c2cccc(-c3ccc(C#CC(C)(C)O)nc3[C@H](Cc3cc(F)cc(F)c3)NC(=O)Cn3nc(C(F)F)c4c3C(F)(F)[C@@H]3C[C@H]43)c21` [Compound 107B, 2-((3bS,4aR)-3-(difluoromethyl)-5,5-difluoro-3b,4,4a,5-tetrahydro-1H-cyclopropa[3,4]cyclopenta[1,2-c]pyrazol-1-yl)-N—((S)-2-(3,5-difluorophenyl)-1-(6-(3-hydroxy-3-methylbut-1-yn-1-yl)-3-(1-methyl-3-oxo-2,3-dihydro-1H-indazol-7-yl)pyridin-2-yl)ethyl)acetamide], for which, in the data set with HIV-IIIb, the inhibition at 0.2 µM turned out to be 95% and the inhibition at 2 µM came to 95%. This compound registered a CC50 at 5 days in data set [1] of 5.3 µM.
For the compound `Cn1nc(NS(N)(=O)=O)c2c(Cl)ccc(-c3ccc(C#CC(C)(C)O)nc3[C@H](Cc3cc(F)cc(F)c3)NC(=O)Cn3nc(C(F)F)c4c3C(F)(F)CCC4(F)F)c21` [Compound 122, (S)—N-(1-(3-(4 chloro-1-methyl-3-(sulfamoylamino)-1H-indazol-7-yl)-6-(3-hydroxy-3-methylbut-1-yn-1-yl)pyridin-2-yl)-2-(3,5-difluorophenyl)ethyl)-2-(3-(difluoromethyl)-4,4,7,7-tetrafluoro-4,5,6,7-tetrahydro-1H-indazol-1-yl)acetamide], in the data set with HIV-IIIb, the inhibition at 0.2 µM worked out at 88% and the inhibition at 2 µM worked out at 88%. In data set [1], this compound returned a CC50 at 5 days of 9.07 µM.
Take `COCC(C)(O)C#Cc1ccc(-c2ccc(Cl)c3c(NS(C)(=O)=O)nn(C)c23)c([C@H](Cc2cc(F)cc(F)c2)NC(=O)Cn2nc(C(F)(F)F)c3c2C(F)(F)[C@@H]2C[C@H]32)n1` (stereo partly drawn) [Compound 154, N-((1S)-1-(3-(4-chloro-1-methyl-3-(methylsulfonamido)-1H-indazol-7-yl)-6-(3-hydroxy-4-methoxy-3-methylbut-1-yn-1-yl)pyridin-2-yl)-2-(3,5-difluorophenyl)ethyl)-2-((3bS,4aR)-5,5-difluoro-3-(trifluoromethyl)-3b,4,4a,5-tetrahydro-1H-cyclopropa[3,4]cyclopenta[1,2-c]pyrazol-1-yl)acetamide]: in the data set with HIV-IIIb, the inhibition at 0.2 µM worked out at 97% and the inhibition at 2 µM stood at 97%. Also, the midpoint of cytotoxicity in data set [1], the CC50 at 5 days, lay at 12.5 µM.
Take `Cn1nc(NS(C)(=O)=O)c2cccc(-c3cnc(C#CC(C)(C)O)nc3[C@H](Cc3cc(F)cc(F)c3)NC(=O)Cn3nc(C(F)(F)F)c4c3C(F)(F)[C@@H]3C[C@H]43)c21` [Compound 41, 2-((3bS,4aR)-5,5-difluoro-3-(trifluoromethyl)-3b,4,4a,5-tetrahydro-1H-cyclopropa[3,4]cyclopenta[1,2-c]pyrazol-1-yl)-N—((S)-2-(3,5-difluorophenyl)-1-(2-(3-hydroxy-3-methylbut-1-yn-1-yl)-5-(1-methyl-3-(methylsulfonamido)-1H-indazol-7-yl)pyrimidin-4-yl)ethyl)acetamide]: in the data set with HIV-IIIb, the inhibition at 0.2 µM is 98% and the inhibition at 2 µM was determined as 98%. Besides, in data set [1], the midpoint of cytotoxicity, the CC50 at 5 days, lay at 7.63 µM.
As for `CC(C)(O)C#Cc1ccc(-c2ccc(F)c(C(N)=O)c2)c([C@H](Cc2cc(F)cc(F)c2)NC(=O)Cn2nc(C(F)F)c3c2C(F)(F)CCC3(F)F)n1` [Compound 28, (S)-5-(2-(1-(2-(3 (difluoromethyl)-4,4,7,7-tetrafluoro-4,5,6,7-tetrahydro-1H-indazol-1-yl)acetamido)-2-(3,5-difluorophenyl)ethyl)-6-(3-hydroxy-3-methylbut-1-yn-1-yl)pyridin-3-yl)-2-fluorobenzamide], in the data set on HIV-IIIb (percent inhibition of virus-induced cell killing at 0.2 μM, comparison with previously published compounds (WO 2013/006738)), the “Response at 0.2 μM” value is on record as 71%. The “Response at 2 μM” value with HIV-IIIb (percent inhibition of virus-induced cell killing at 2 μM, comparison with previously published compounds (WO 2013/006738)) amounted to 84%. Also, the CC50 at 5 days in data set [1] worked out at 12.2 µM.
As to `Cn1nc(NS(C)(=O)=O)c2c(Cl)ccc(-c3ccc(C#CC(C)(C)O)nc3[C@H](Cc3cc(F)cc(F)c3)NC(=O)Cc3c[nH]c4ccc(F)cc34)c21` [Compound 193, (S)—N-(1-(3-(4 chloro-1-methyl-3-(methylsulfonamido)-1H-indazol-7-yl)-6-(3-hydroxy-3-methylbut-1-yn-1-yl)pyridin-2-yl)-2-(3,5-difluorophenyl)ethyl)-2-(5-fluoro-1H-indol-3-yl)acetamide], in the data set with HIV-IIIb, the inhibition at 0.2 µM was determined as 92% and the inhibition at 2 µM worked out at 92%. The CC50 at 5 days in data set [1] was 23.1 µM.
On to `Cn1nc(N)c2cccc(-c3ccc(C#CC(C)(C)O)nc3[C@H](Cc3cc(F)cc(F)c3)NC(=O)Cn3nc(C(F)F)c4c3C(F)(F)CCC4(F)F)c21` [Compound 31, (S)—N-(1-(3-(3-amino-1-methyl-1H-indazol-7-yl)-6-(3-hydroxy-3-methylbut-1-yn-1-yl)pyridin-2-yl)-2-(3,5-difluorophenyl)ethyl)-2-(3-(difluoromethyl)-4,4,7,7-tetrafluoro-4,5,6,7-tetrahydro-1H-indazol-1-yl)acetamide], for which, in the data set on HIV-IIIb, the inhibition at 0.2 µM amounted to 89% and the inhibition at 2 µM worked out at 89%. In data set [1], this compound came in with a CC50 at 5 days of 8.03 µM.
Turning to `CN(C)c1cc(-c2ccc(Cl)c3c(NS(C)(=O)=O)nn(C)c23)c([C@H](Cc2cc(F)cc(F)c2)NC(=O)Cn2nc(C(F)F)c3c2C(F)(F)[C@@H]2C[C@H]32)nc1C#CC(C)(C)O` [Compound 183F, N—((S)-1-(3-(4-chloro-1-methyl-3-(methylsulfonamido)-1H-indazol-7-yl)-5-(dimethylamino)-6-(3-hydroxy-3-methylbut-1-yn-1-yl)pyridin-2-yl)-2-(3,5-difluorophenyl)ethyl)-2-((3b-S,4aR)-3-(difluoromethyl)-5,5-difluoro-3b,4,4a,5-tetrahydro-1H-cyclopropa[3,4]cyclopenta[1,2-c]pyrazol-1-yl)acetamide], in the data set on HIV-IIIb, the inhibition at 0.2 µM was determined as 84% and the inhibition at 2 µM worked out at 84%. For the same compound, the CC50 at 5 days in data set [1] is 12.4 µM.
Regarding `Cn1nc(NS(C)(=O)=O)c2c(Cl)ccc(-c3ccc(C#CC(C)(C)O)nc3[C@H](Cc3cccc(F)c3)NC(=O)Cn3nc(C(F)(F)F)c4c3C(F)(F)[C@@H]3C[C@H]43)c21` [Compound 187G, N—((S)-1-(3-(4-chloro-1-methyl-3-(methylsulfonamido)-1H-indazol-7-yl)-6-(3-hydroxy-3-methylbut-1-yn-1-yl)pyridin-2-yl)-2-(3-fluorophenyl)ethyl)-2-((3b-S,4aR)-5,5-difluoro-3-(trifluoromethyl)-3b,4,4a,5-tetrahydro-1H-cyclopropa[3,4]cyclopenta[1,2-c]pyrazol-1-yl)acetamide], in the data set on HIV-IIIb, the inhibition at 0.2 µM turned out to be 84% and the inhibition at 2 µM was found to be 84%. The CC50 at 5 days in data set [1] is 19.8 µM.
